Measured values published in patent US6670334B2, “Method and compositions for treating the inflammatory response” (University of Virginia Patent Foundation, priority 2001, dated 2003).

Columns and labels:
[1] = system: human neutrophils; experiment: Neutrophil oxidative activity (luminol-enhanced chemiluminescence), TNF/f-met-leu-phe stimulation; format: cell-based; settings: TNF-alpha 10 U/ml primed, fMLP 1 μM stimulated, ADA 1 Units/ml, FIG. 13, read-out: EC50 for decreasing neutrophil oxidative activity
From the text: A2A agonists blocking of neutrophil oxidative activity. […] This was detected by luminol-enhanced chemiluminescence. The EC50's were lower for the ester when compared to its acid.
A one-step Ficoll-Hypaque separation procedure (Ferrante and Thong, 1980) was used to purify human neutrophils from normal heparinized (10 Units/ml) of venous blood yielding approximately 98% neutrophils; having about >95% viable as determined with trypan blue containing <50 pg/ml of endotoxin. Following separation, the neutrophils were washed with Hank's balanced salt solution (HBSS) three times.
Neutrophil oxidative activity (luminol-enhanced chemiluminescence): The activated neutrophils emit light from unstable high-energy oxygen species produced by the plasma membrane associated NADPH oxidase and metabolized by cytoplasmic and granule enzymes. The light signal from activated neutrophils can be enhanced by the addition of luminol to the samples. […]
The purified neutrophils (1×10^6/ml) were incubated in HBSS containing 0.1% HSA (1 ml), plus adenosine deaminase (1 Units/ml), ±JR2171 or ±CGS21680, and with TNF-alpha (10 U/ml) for 30 min at 37° C. in a shaking water bath. Then luminol ([…]) enhanced f-met-leu-phe (1 μM)-stimulated chemiluminescence was read with a Chronolog Photometer (Chronolog Corp., Havertown, Pa.) at 37° C. for 8 min. […]

[2] = biological target: recombinant human A2A adenosine receptors (Homo sapiens, UniProt P29274); experiment: Radioligand binding assay, competition for 125I-ZM241385
Sequence of recombinant human A2A adenosine receptors (P29274 whole entry): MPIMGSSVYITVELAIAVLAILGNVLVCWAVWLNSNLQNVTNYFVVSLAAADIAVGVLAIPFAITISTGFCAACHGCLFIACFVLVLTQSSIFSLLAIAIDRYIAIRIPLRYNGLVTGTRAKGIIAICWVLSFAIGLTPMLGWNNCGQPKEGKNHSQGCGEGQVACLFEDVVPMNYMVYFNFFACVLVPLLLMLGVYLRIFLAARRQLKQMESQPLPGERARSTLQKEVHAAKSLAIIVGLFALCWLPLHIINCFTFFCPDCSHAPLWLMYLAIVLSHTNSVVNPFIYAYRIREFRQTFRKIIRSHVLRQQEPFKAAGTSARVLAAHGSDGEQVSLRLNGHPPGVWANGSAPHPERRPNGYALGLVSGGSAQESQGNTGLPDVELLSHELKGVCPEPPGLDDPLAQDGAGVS

[3] = system: PMN; experiment: TNF-stimulated PMN adherence to a fibrinogen-coated surface; format: cell-based, human
Method: PMN adherence to fibrinogen was measured as follows as adapted from Hanlon, J. Leukocyte Biol., 50, 43 (1991). Twenty-four well flat-bottomed tissue culture plates were incubated (37° C.) overnight with 0.5 ml of fibrinogen (5 mg/ml) dissolved in 1.5% NaHCO3. The plates were emptied and each well washed 2× with 1 ml of normal saline. The wells were then filled with 1 ml of HBSS-0.1% human serum albumin containing PMN (1×10^6/ml) with and without rhTNFα (1 U/ml), adenosine deaminase (ADA) (1 U/ML), WRC-0474[SHA 211] (10 nM), CGS21680 (30 nM), adenosine (100 nM) and rolipram (100 nM). The plates were incubated for 90 minutes at 37° C. in 5% CO2. Following incubation the tissue culture wells were washed free of non-adherent cells with normal saline. The adherent monolayer of PMN was lysed with 0.1% triton-X, the amount of lactic dehydrogenase (LDH) released from the monolayer assayed (LDH kit, Sigma Co., St. Louis, Mo.), and compared to a standard curve relating the LDH content to PMN numbers.

[4] = system: human adherent monocytes; experiment: Production of TNFα by purified human adherent monocytes (endotoxin-stimulated, ELISA); format: cell-based; settings: ZM241385 50 nM; p=0.020; FIG. 7B
Method: Production of TNFα by purified human adherent monocytes. A monocyte rich monolayer (>95% monocytes) was prepared by incubating 1 ml of the mononuclear leukocyte fraction (5×10^5/ml) from a Ficoll-Hypaque separation in wells of a 24 well tissue culture plate (1 hr; 37° C.; 5% CO2). […] The samples were incubated for 4 hr (37° C.; 5% CO2) and the supernatants harvested. Any suspended cells were removed by centrifugation and the cell-free samples frozen (−70° C.). TNFα was assayed in the cell-free supernatants by an ELISA kit (Cistron Biotechnology, Pine Brook, N.J.).

[5] = system: Adult wistar rats with bacteria meningitis (BM); experiment: Rat model of inflammation (bacteria meningitis): CSF WBC pleocytosis and blood-brain barrier permeability; format: in vivo
Method: Effects of WRC-0470 and rolipram on the extravasation of white blood cells in a rat model of inflammation. Adult wistar rats (approximately 200 g) were anesthetized with intermuscular injections of ketamine and xylazine. Bacteria meningitis (BM) was introduced via intracistemal inoculation of either E. coli strain 026:B6LPS (200 ng), cytokines (IL-1 and TNFα or LPS plus cytokines). The animals were then infused with rolipram and/or WRC-1470 over the duration of the experiment using a Harvard pump. CSF (cerebrospinal fluid) and blood was then sampled at 4 h post-inoculation and alterations in BBBP (blood-brain barrier permeability) and WBC (white blood cell) counts were determined. CSF and WBC concentrations were determined with standard hemacytometer methods. For assessment of % BBBP, rats were given an intravenous injection of 5 μCi 125I-labeled bovine serum albumin concomitant with intracistemal inoculation. Equal samples of CSF and blood were read simultaneously in a gamma counter and after subtraction of background radioactivity, % BBBP was calculated by the following formula: % BBBP=(cpm CSF/cpm blood)×100. All statistical tests were performed using Instat biostatistical software to compare the post-inoculation samples of experimental rats with the control rats. The statistical tests used to generate p-values were Student's t-test and ANOVA.

[6] = system: Human PMN adherent to fibrinogen; experiment: TNFα-stimulated superoxide release of PMN adherent to a fibrinogen coated surface; format: cell-based; settings: rolipram 100 nM; WRC-0474[SHA 211] 30-300 nM, other agonists 300 nM; p<0.05; FIG. 5

CCNC(=O)C1OC(n2cnc3c(N)nc(NCCc4ccc(CCC(=O)OC)cc4)nc32)C(O)C1O (stereo not drawn) [JR2171, 3-(4-{2-[6-Amino-9-(5-ethylcarbamoyl-3,4-dihydroxy-tetrahydro-furan-2-yl)9H-purin-2-ylamino]-ethyl}-phenyl)-propionic acid methyl ester]
EC50 [1]: 0.371 nM
Ki [2]: 45 nM

Nc1ncnc2c1ncn2[C@@H]1O[C@H](CO)[C@@H](O)[C@H]1O [adenosine]
TNF-stimulated PMN adherence, % adhered ([3]; 100 nM, p=0.009 compared to TNF in the presence of ADA): 28%

Nc1nc(NCCc2ccc(O)cc2)nc2nc(-c3ccco3)nn12 [ZM241385, 4-(2-[7-amino-2-(2-furyl)[1,2,4]-triazolo[2,3a]-[1,3,5]trazinyl-amino]ethyl)-phenol]
antagonism of the effect of WRC-0470 (300 nM) combined with rolipram (300 nM) on TNFα release from monocytes [4]: significantly inhibited the effect

COc1ccc(C2CNC(=O)C2)cc1OC1CCCC1 (stereo not drawn) [Rolipram, 4-(3-cyclopentyloxy-4-methoxyphenyl)-2-pyrrolidone]
alterations of BBBP ([5]; 0.002 μg/kg/hr): no significant effect
inhibition of CSF pleocytosis ([5]; 0.01 μg/kg/hr, p<0.05, FIG. 10): 99%
alterations of BBBP ([5]; 0.01 or 0.005 μg/kg/hr, p<0.05): significant inhibition
WBC migrated into the sub-arachnoid space (CSF WBC) ([5]; rolipram alone (0.001 μg/kg/hr), p<0.050): 1,670±1,273 WBC/μl

CCNC(=O)C1OC(n2cnc3c(N)nc(NCCc4ccc(CCC(=O)O)cc4)nc32)C(O)C1O (stereo not drawn) [CGS21680, 3-(4-{2-[6-amino-9-(5-ethylcarbamoyl-3,4-dihydroxy-tetrahydro-furan-2-yl)-9H-purin-2-ylamino]-ethyl}-phenyl)-propionic acid]
EC50 [1]: 2.09 nM
TNF-stimulated PMN adherence, % adhered ([3]; 30 nM, in the presence of ADA, TNF+ADA control 38%, p=0.004): 30%

Cc1ccc(CCOc2nc(N)c3ncn([C@@H]4O[C@H](CO)[C@@H](O)[C@H]4O)c3n2)cc1 [WRC-0090]
TNFα-stimulated adherent PMN superoxide release, agonist combined with rolipram [6]: synergistically decreased superoxide release

Nc1nc(OCCc2ccc3ccccc3c2)nc2c1ncn2[C@@H]1O[C@H](CO)[C@@H](O)[C@H]1O [WRC-0018]
TNFα-stimulated adherent PMN superoxide release, agonist combined with rolipram [6]: synergistically decreased superoxide release
